Assay results: paper PMC6358866 (International Journal of Molecular Sciences, 2019)

Columns and labels:
[1] = test system: Staphylococus aureus ATCC 6538 biofilm; assay: Activity against biofilms formed on polystyrene 96-well plates, 24 h exposure, resazurin; assay type: cell-based, Staphylococcus aureus; settings: polystyrene plate, 24 h exposure in MHB II, resazurin; for MBEC 50: lowest concentration reducing metabolic activity by at least 50 ± 5%; for MBEC 90: lowest concentration reducing metabolic activity by at least 90 ± 5%, mean of nine results
Description: (§1) Bacterial strains were obtained from the Polish Collection of Microorganisms (Polish Academy of Science, Wroclaw, Poland). […] The bacteria were cultured in a Mueller Hinton Broth II (MHB, Biocorp, Warsaw, Poland) overnight, under aerobic conditions at 37 °C. After incubation, the liquid cultures were centrifuged (2500 rpm for 10 min) and washed with phosphoric buffer (PBS, AppliChem, Darmstadt, Germany) three times and resuspended in fresh MHB II for inoculums appropriate for the performed assays.
(§2) Bacterial suspensions were added to 96-well plates (Kartell, Noviglio, Italy) at initial inoculums of ca. 5 × 10^8 CFU/mL and incubated under aerobic conditions with shaking (120 rpm) at 37 °C for 24 h. […] After exposure, the wells were washed three times with PBS and a solution of resazurin (Sigma Aldrich, St. Louis, MO, USA) in MHB II (0.01%) was added. This cell viability reagent is metabolized by bacterial dehydrogenases upon contact with living cells. As a result, the blue dye is reduced to a pink resorufin. After 1.5 h of incubation, the absorbance was measured at 570 and 600 nm using a microplate reader (Thermo Fisher Scientific, Waltham, MA, USA). […] The metabolic activity of bacteria in the samples was measured according to the following formula:
(§3) Metabolic activity (%) = (ΔAbs of sample − ΔAbs of negative control)/(ΔAbs of positive control − ΔAbs of negative control);
(§4) ΔAbs = absorbance at 570 nm − absorbance at 600 nm;
(§5) The presented results are the means of nine results obtained on three different days.

[2] = test system: Escherichia coli ATCC 25922 biofilm; assay: as above; assay type: cell-based; settings: polystyrene plate, 24 h exposure in MHB II; for MBEC 50: lowest concentration reducing metabolic activity by at least 50 ± 5%
Description: as §1, §2, §3, §4, §5

[3] = test system: Pseudomonas aeruginosa ATCC 9027 biofilm; assay: as above; assay type: cell-based; settings: for MBEC 50: lowest concentration reducing metabolic activity by at least 50 ± 5%; for MBEC 50 / MBEC 90: polystyrene plate, 24 h exposure in MHB II, resazurin; for MBEC 90: lowest concentration reducing metabolic activity by at least 90 ± 5%, mean of nine results
Description: as §1, §2, §3, §4, §5

[4] = test system: Enterococcus faecalis ATCC 29212 biofilm; assay: as above; assay type: cell-based; settings: polystyrene plate, 24 h exposure in MHB II; for MBEC 50: lowest concentration reducing metabolic activity by at least 50 ± 5%
Description: as §1, §2, §3, §4, §5

[5] = test system: Staphylococcus epidermidis ATCC 14990 biofilm; assay: as above; assay type: cell-based; settings: for MBEC 50: lowest concentration reducing metabolic activity by at least 50 ± 5%; for MBEC 50 / MBEC 90: polystyrene plate, 24 h exposure in MHB II, resazurin; for MBEC 90: lowest concentration reducing metabolic activity by at least 90 ± 5%, mean of nine results
Description: as §1, §2, §3, §4, §5

[6] = test system: Staphylococus aureus ATCC 6538 biofilm; assay: Activity against biofilms on 96-well plates after withdrawal of the antimicrobial (additional 24 h in MHB II); assay type: cell-based, Staphylococcus aureus; settings: after withdrawal and additional 24 h in MHB II; for MBEC II 50: lowest concentration giving permanent reduction of metabolic activity by at least 50 ± 5%; for MBEC II 90: lowest concentration giving permanent reduction of metabolic activity by at least 90 ± 5%
Description: (§6) Bacterial strains were obtained from the Polish Collection of Microorganisms (Polish Academy of Science, Wroclaw, Poland). Three Gram-positive and two Gram-negative strains linked with CL-related infections were chosen for the study (Staphylococus aureus ATCC 6538, Staphylococcus epidermidis ATCC 14990, Pseudomonas aeruginosa ATCC 9027, Escherichia coli ATCC 25922, and Enterococcus faecalis ATCC 29212). The bacteria were cultured in a Mueller Hinton Broth II (MHB, Biocorp, Warsaw, Poland) overnight, under aerobic conditions at 37 °C. […] Bacterial suspensions were added to 96-well plates (Kartell, Noviglio, Italy) at initial inoculums of ca. 5 × 10^8 CFU/mL and incubated under aerobic conditions with shaking (120 rpm) at 37 °C for 24 h. […] After exposure, the wells were washed three times with PBS and a solution of resazurin (Sigma Aldrich, St. […] This cell viability reagent is metabolized by bacterial dehydrogenases upon contact with living cells. As a result, the blue dye is reduced to a pink resorufin. After 1.5 h of incubation, the absorbance was measured at 570 and 600 nm using a microplate reader (Thermo Fisher Scientific, Waltham, MA, USA). […] The procedure was conducted as described in Section 4.3, with the difference that after exposure to antimicrobials, the wells were washed three times with PBS and pure MHB II was added. The samples were incubated for another 24 h (aerobic conditions, 120 rpm shaking, 37 °C). […] The absorbance was measured at the same wave lengths and metabolic activity was calculated according to the formula given in Section 4.3. The presented results are means of nine results obtained on three different days.

[7] = test system: Escherichia coli ATCC 25922 biofilm; assay: as above; assay type: cell-based; settings: after withdrawal and additional 24 h in MHB II
Description: as §6

[8] = test system: Pseudomonas aeruginosa ATCC 9027 biofilm; assay: as above; assay type: cell-based; settings: for effect of pretreatment on biofilm after withdrawal: PA biofilm on polystyrene, concentrations lower than 32 mg/L, after withdrawal and additional 24 h
Description: as §6

[9] = test system: Enterococcus faecalis ATCC 29212 biofilm; assay: as above; assay type: cell-based; settings: after withdrawal and additional 24 h in MHB II
Description: as §6

[10] = test system: Staphylococcus epidermidis ATCC 14990 biofilm; assay: as above; assay type: cell-based; settings: after withdrawal and additional 24 h in MHB II; for MBEC II 50: lowest concentration giving permanent reduction of metabolic activity by at least 50 ± 5%; for MBEC II 90: lowest concentration giving permanent reduction of metabolic activity by at least 90 ± 5%
Description: as §6

[11] = test system: human cells (keratinocytes, erythrocytes); settings: cited from earlier work
Excerpt: PA was also the most difficult strain to eliminate from the surface of CL in the previous study, in which we investigated amphibian peptides and short lipopeptides containing hexadecanoic acid according to their potential application as CL solution additives. The results of performed antimicrobial assays were also very promising. However, due to high toxicity towards human keratinocytes in vitro, the ocular applications of lipopeptides with hexadecanoic acid are not worth further consideration. In contrast to those lipopeptides, the compound with two residues of decanoic aci ... || The excellent antimicrobial activity was previously reported for many lipopeptides. This, along with the relatively low production costs, has encouraged many research groups to study their antimicrobial activities and design molecules with optimal properties. C16-KK-NH2 is one of such extensively studied compounds. […] Other derivatives ...

[12] = lowest concentration reducing metabolic activity by at least 90 ± 5%, mean of nine results
[13] = lowest concentration giving permanent reduction of metabolic activity by at least 50 ± 5%
[14] = lowest concentration giving permanent reduction of metabolic activity by at least 90 ± 5%

Row | Compound | MBEC 50 [1] [mg/L] | MBEC 90 [1] [mg/L] | MBEC 50 [2] [mg/L] | MBEC 50 [3] [mg/L] | MBEC 90 [3] [mg/L] | MBEC 50 [4] [mg/L] | MBEC 50 [5] [mg/L] | MBEC 90 [5] [mg/L] | MBEC II 50 [6] [mg/L] | MBEC II 90 [6] [mg/L] | effect of pretreatment on biofilm after withdrawal [8] | MBEC II 50 [10] [mg/L] | MBEC II 90 [10] [mg/L] | also measured
1 | O=C(N[C@H](CO)[C@H](O)c1ccc([N+](=O)[O-])cc1)C(Cl)Cl [Chloramphenicol] | 128 | >256 | 8 | 4 | 128 | 32 | 32 | 256 | >256 | >256 | significant promotion of biofilm growth | >256 | >256 | MBEC 90 [2, 12]: 16 mg/L; reduction of metabolic activities ([3]; PA biofilm on polystyrene, 24 h exposure, 32–64 mg/L): ~70%; MBEC 90 [4, 12]: >256 mg/L; metabolic activity of bacteria ([5]; SE biofilm on polystyrene, 24 h exposure, 64 mg/L): ~25%; MBEC II 50 [7, 13]: >256 mg/L; MBEC II 90 [7, 14]: >256 mg/L; MBEC II 50 ([8]; lowest concentration giving permanent reduction of metabolic activity by at least 50 ± 5%, after withdrawal and additional 24 h in MHB II): 256 mg/L; MBEC II 90 ([8]; lowest concentration giving permanent reduction of metabolic activity by at least 90 ± 5%, after withdrawal and additional 24 h in MHB II): >256 mg/L; MBEC II 50 [9, 13]: >256 mg/L; MBEC II 90 [9, 14]: >256 mg/L
2 | C16-KK-NH2 |  |  |  |  |  |  |  |  |  |  |  |  |  | toxicity towards human cells [11]: high toxicity
3 | neomycin (sulfate) | 4 | 64 | 8 | 8 | 64 | 64 | ≤1 | 16 | 64 | 64 | enhanced metabolism of bacteria in comparison to the positive control | 8 | 16 | reduction of metabolic activity ([3]; PA biofilm on polystyrene, 24 h exposure, 32 mg/L): 75%; concentration giving a permanent antibiofilm effect ([10]; SE biofilm on polystyrene): 16 mg/L
